Measurements reported in US12397056B2, “System for inducing sonoporation of a drug into cancer cells and method thereof” (Freedom Waves S.R.L, priority 2018, dated 2025).

Legend:
Type in all cases: cell-based
[1] = test system: MDA-MB-231: estrogen independent human breast adenocarcinoma; experiment: Cell death of MDA-MB-231 cells after drug with or without pLINFU sonoporation
Protocol: (§1) The system of the present invention was tested in vitro using two cellular lines of human breast cancer and one cellular line of human pancreatic adenocarcinoma. In particular the following cellular lines were employed: • MCF-7: human breast ductal carcinoma; • MDA-MB-231: estrogen independent human breast adenocarcinoma; • MiaPaCa-2: human pancreatic adenocarcinoma.
(§2) For each combination the percentage of cell death was measured in three main experimental conditions: • administration of the drug (hereinafter named “NO-US” condition); • administration of the drug and simultaneous administration of non focalized pulsed low-intensity ultrasound with a frequency of 1 MHz and a period of 1 second, said drug being administered in a unique dose; • 1 administration of non focalized pulsed low-intensity ultrasound with a frequency of 1 MHz and a period of 1 second, followed by administration of the drug; and • administration of the drug and simultaneous administration of non focalized pulsed low-intensity ultrasound with a frequency of 1 MHz and a period of 1 second, said drug being administered in two doses of equal concentration (hereinafter termed “US-DC” condition).
(§3) All the experimental conditions, other than NO-US, were replicated for different values of duty cycle and each experimental condition were replicated for three different total concentrations of drugs. Several operation times were also tested for each cellular lines and for each type of drug.

[2] = test system: MCF-7: human breast ductal carcinoma; experiment: Cell death of MCF-7 cells after drug with or without pLINFU sonoporation
Protocol: as §1, §2, §3

[3] = test system: MiaPaCa-2: human pancreatic adenocarcinoma; experiment: Cell death of MiaPaCa-2 cells after drug with or without pLINFU sonoporation; conditions: MiaPaCa2
Protocol: as §1, §2, §3

[4] = total concentration 100 μg/ml, NO-US (no ultrasound)
[5] = total concentration 100 μg/ml, US-DC = 9%
[6] = total concentration 100 μg/ml, US-DC = 9% (pLINFU 1 MHz, 20 s + 20 s)
[7] = total concentration 100 μg/ml, US-DC = 12%
[8] = total concentration 100 μg/ml, US-DC = 12% (pLINFU 1 MHz, 20 s + 20 s)
[9] = total concentration 500 μg/ml, NO-US (no ultrasound)
[10] = total concentration 500 μg/ml, US-DC = 9%
[11] = total concentration 500 μg/ml, US-DC = 9% (pLINFU 1 MHz, 20 s + 20 s)
[12] = total concentration 500 μg/ml, US-DC = 12%
[13] = total concentration 500 μg/ml, US-DC = 12% (pLINFU 1 MHz, 20 s + 20 s)
[14] = total concentration 1000 μg/ml, US-DC = 9%
[15] = total concentration 1000 μg/ml, US-DC = 9% (pLINFU 1 MHz, 20 s + 20 s)
[16] = total concentration 1000 μg/ml, US-DC = 12%
[17] = total concentration 0.5 μM, NO-US (no ultrasound)
[18] = total concentration 0.5 μM, US-DC = 9%
[19] = total concentration 0.5 μM, US-DC = 9% (pLINFU 1 MHz, 20 s + 20 s)
[20] = total concentration 0.5 μM, US-DC = 12%
[21] = total concentration 0.5 μM, US-DC = 12% (pLINFU 1 MHz, 20 s + 20 s)
[22] = total concentration 10 μM, NO-US (no ultrasound)
[23] = total concentration 10 μM, US-DC = 9%
[24] = total concentration 10 μM, US-DC = 9% (pLINFU 1 MHz, 20 s + 20 s)
[25] = total concentration 10 μM, US-DC = 12%
[26] = total concentration 10 μM, US-DC = 12% (pLINFU 1 MHz, 20 s + 20 s)
[27] = total concentration 50 μM, NO-US (no ultrasound)
[28] = total concentration 50 μM, US-DC = 9%
[29] = total concentration 50 μM, US-DC = 9% (pLINFU 1 MHz, 20 s + 20 s)
[30] = total concentration 50 μM, US-DC = 12%
[31] = total concentration 50 μM, US-DC = 12% (pLINFU 1 MHz, 20 s + 20 s)

With COc1cccc2c1C(=O)c1c(O)c3c(c(O)c1C2=O)C[C@@](O)(C(=O)CO)C[C@@H]3O[C@H]1C[C@H](N)[C@H](O)[C@H](C)O1 [Doxorubicin] the “Cell Death %” value [1, 4] was 10.9%, the “Increasing % vs NO-US” value [1, 5] was “+116%” and the “Cell Death %” value [1, 6] was 23.5%. For the same compound, the “Increasing % vs NO-US” value [1, 7] was “+11.8%”, the “Cell Death %” value [1, 8] was 12% and the “Cell Death %” value [1, 9] was 22.8%. For the same compound, the “Increasing % vs NO-US” value [1, 10] was “+70.5%”, the “Cell Death %” value [1, 11] was 38.8% and the “Increasing % vs NO-US” value [1, 12] was “+18.4%”. For the same compound, the “Cell Death %” value [1, 13] was 27%, the “Increasing % vs NO-US” value [1, 14] was “+11.1%” and the “Cell Death %” value [1, 15] was 60.5%. For the same compound, the “Increasing % vs NO-US” value [1, 16] was “+0.3%”, the “Cell Death %” value [2, 4] was 17.1% and the “Increasing % vs NO-US” value [2, 5] was “+74.4%”. For the same compound, the “Cell Death %” value [2, 6] was 29.8%, the “Increasing % vs NO-US” value [2, 7] was “+64.9%” and the “Cell Death %” value [2, 8] was 28.2%. For the same compound, the “Cell Death %” value [2, 9] was 23.3%, the “Increasing % vs NO-US” value [2, 10] was “+102.5%” and the “Cell Death %” value [2, 11] was 47.2%. The “Increasing % vs NO-US” value [2, 12] was “+114.2%”, the “Cell Death %” value [2, 13] was 49.9% and the “Cell Death %” value ([2]; total concentration 1000 μg/ml, NO-US (no ultrasound)) was 59%. The “Increasing % vs NO-US” value [2, 14] was “+19.7%”, the “Cell Death %” value [2, 15] was 70.6%^ and the “Increasing % vs NO-US” value [2, 16] was “+39%”. The “Cell Death %” value ([2]; total concentration 1000 μg/ml, US-DC = 12% (pLINFU 1 MHz, 20 s + 20 s)) was 82%.
In the case of CCc1c2c(nc3ccc(OC(=O)N4CCC(N5CCCCC5)CC4)cc13)-c1cc3c(c(=O)n1C2)COC(=O)[C@]3(O)CC [Irinotecan], the “Cell Death %” value ([3]; total concentration 0.05 μM, NO-US (no ultrasound)) is reported as 11.5%, the “Increasing % vs NO-US” value ([3]; total concentration 0.05 μM, US-DC = 1%) is reported as “+120.8%” and the “Cell Death %” value ([3]; total concentration 0.05 μM, US-DC = 1% (pLINFU 1 MHz, 20 s + 20 s)) is reported as 25.4%. For the same compound, the “Increasing % vs NO-US” value ([3]; total concentration 0.05 μM, US-DC = 12%) was “+60.6%”, the “Cell Death %” value ([3]; total concentration 0.05 μM, US-DC = 12% (pLINFU 1 MHz, 20 s + 20 s)) was 18.5% and the “Cell Death %” value ([3]; total concentration 1 μM, NO-US (no ultrasound)) was 21.1%. For the same compound, the “Increasing % vs NO-US” value ([3]; total concentration 1 μM, US-DC = 1%) was “+62.9%”, the “Cell Death %” value ([3]; total concentration 1 μM, US-DC = 1% (pLINFU 1 MHz, 20 s + 20 s)) was 34.3% and the “Increasing % vs NO-US” value ([3]; total concentration 1 μM, US-DC = 12%) was “+42.5%”. For the same compound, the “Cell Death %” value ([3]; total concentration 1 μM, US-DC = 12% (pLINFU 1 MHz, 20 s + 20 s)) was 30%, the “Cell Death %” value ([3]; total concentration 50 μM (irinotecan series), NO-US (no ultrasound)) was 56.7% and the “Increasing % vs NO-US” value ([3]; total concentration 50 μM (irinotecan series), US-DC = 1%) was “+31.1%”. For the same compound, the “Cell Death %” value ([3]; total concentration 50 μM (irinotecan series), US-DC = 1% (pLINFU 1 MHz, 20 s + 20 s)) was 74.3%, the “Increasing % vs NO-US” value ([3]; total concentration 50 μM (irinotecan series), US-DC = 12%) was “+16.5%” and the “Cell Death %” value ([3]; total concentration 50 μM (irinotecan series), US-DC = 12% (pLINFU 1 MHz, 20 s + 20 s)) was 66%.
In the case of CC(=O)O[C@H]1C(=O)[C@@]2(C)[C@H]([C@H](OC(=O)c3ccccc3)[C@]3(O)C[C@H](OC(=O)[C@H](O)[C@@H](NC(=O)c4ccccc4)c4ccccc4)C(C)=C1C3(C)C)[C@]1(OC(C)=O)CO[C@@H]1C[C@@H]2O [Paclitaxel], the “Cell Death %” value [1, 17] is reported as 6.4%, the “Increasing % vs NO-US” value [1, 18] is reported as “+76.6%” and the “Cell Death %” value [1, 19] is reported as 11.3%. For the same compound, the “Increasing % vs NO-US” value [1, 20] was −7.8%, the “Cell Death %” value [1, 21] was 5.9% and the “Cell Death %” value [1, 22] was 6.4%. The “Increasing % vs NO-US” value [1, 23] was “+128.4%”, the “Cell Death %” value [1, 24] was 14.7% and the “Increasing % vs NO-US” value [1, 25] was “+15%”. For the same compound, the “Cell Death %” value [1, 26] was 7.4%, the “Cell Death %” value [1, 27] was 7.9% and the “Increasing % vs NO-US” value [1, 28] was “+221.9%”. For the same compound, the “Cell Death %” value [1, 29] was 25.5%, the “Increasing % vs NO-US” value [1, 30] was “+55.3%” and the “Cell Death %” value [1, 31] was 12.3%. For the same compound, the “Cell Death %” value [2, 17] was 1.0%, the “Increasing % vs NO-US” value [2, 18] was “+807.5%” and the “Cell Death %” value [2, 19] was 9.1%. The “Increasing % vs NO-US” value [2, 20] was “+242.5%”, the “Cell Death %” value [2, 21] was 3.4% and the “Cell Death %” value [2, 22] was 4.1%. For the same compound, the “Increasing % vs NO-US” value [2, 23] was “+484.7%”, the “Cell Death %” value [2, 24] was 24% and the “Increasing % vs NO-US” value [2, 25] was “+221.6%”. For the same compound, the “Cell Death %” value [2, 26] was 13.2%, the “Cell Death %” value [2, 27] was 7.2% and the “Increasing % vs NO-US” value [2, 28] was “+354.2%”. For the same compound, the “Cell Death %” value [2, 29] was 32.7%, the “Increasing % vs NO-US” value [2, 30] was “+147.3%” and the “Cell Death %” value [2, 31] was 17.8%. For the same compound, the “Cell Death %” value [3, 17] was 45.5%, the “Increasing % vs NO-US” value ([3]; total concentration 0.5 μM, US-DC = 1%) was 40.1% and the “Cell Death %” value ([3]; total concentration 0.5 μM, US-DC = 1% (pLINFU 1 MHz, 20 s + 20 s)) was 22.7%. For the same compound, the “Increasing % vs NO-US” value [3, 20] was 17.1%, the “Cell Death %” value [3, 21] was 12.7% and the “Cell Death %” value [3, 22] was 65.3%. The “Increasing % vs NO-US” value ([3]; total concentration 10 μM, US-DC = 1%) was “+22.7%”, the “Cell Death %” value ([3]; total concentration 10 μM, US-DC = 1% (pLINFU 1 MHz, 20 s + 20 s)) was 12.8% and the “Increasing % vs NO-US” value [3, 25] was “+12.7%”. The “Cell Death %” value [3, 26] was 9.2%, the “Cell Death %” value [3, 27] was 80.2% and the “Increasing % vs NO-US” value ([3]; total concentration 50 μM, US-DC = 1%) was “+12.8%”. The “Cell Death %” value ([3]; total concentration 50 μM, US-DC = 1% (pLINFU 1 MHz, 20 s + 20 s)) was 90.5%, the “Increasing % vs NO-US” value [3, 30] was “+9.2%” and the “Cell Death %” value [3, 31] was 87.6%.
